Measurements published in patent publication US20240158446A1, “CYCLIC COMPOUND HAVING SELECTIVE INHIBITORY ACTION ON KRAS OVER HRAS AND NRAS” (CHUGAI SEIYAKU KABUSHIKI KAISHA, priority 2021, published 2024).
Read-outs that look alike come from different tables or passages of the source.

Columns and labels:
[1] = molecular target: GDP-bound KRAS wild-type protein (Homo sapiens, UniProt P01116); experiment: Binding to KRAS by surface plasmon resonance (SPR), Single Cycle Kinetics; conditions: GDP-bound KRAS wild-type protein, read-out: KRAS KD
GDP-bound KRAS wild-type protein, sequence (P01116 whole entry): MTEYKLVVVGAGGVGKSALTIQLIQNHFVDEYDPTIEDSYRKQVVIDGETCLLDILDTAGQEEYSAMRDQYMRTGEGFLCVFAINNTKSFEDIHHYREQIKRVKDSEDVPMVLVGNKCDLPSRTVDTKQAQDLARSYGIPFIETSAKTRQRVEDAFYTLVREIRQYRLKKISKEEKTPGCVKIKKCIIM

[2] = molecular target: GDP-bound NRAS wild-type protein (Homo sapiens, UniProt P01111); experiment: Binding to NRAS by surface plasmon resonance (SPR), Single Cycle Kinetics; conditions: for NRAS/KRAS (ratio of KD value for NRAS to KD value for KRAS): GDP-bound NRAS wild-type protein vs GDP-bound KRAS wild-type protein
GDP-bound NRAS wild-type protein, sequence (P01111 whole entry): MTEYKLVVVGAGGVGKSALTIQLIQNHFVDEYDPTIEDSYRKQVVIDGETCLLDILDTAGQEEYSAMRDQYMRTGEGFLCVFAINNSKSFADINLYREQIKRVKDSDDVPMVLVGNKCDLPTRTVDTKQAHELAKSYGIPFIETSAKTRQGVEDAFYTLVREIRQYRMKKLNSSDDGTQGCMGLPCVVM

[3] = molecular target: GDP-bound HRAS wild-type protein (Homo sapiens, UniProt P01112); experiment: Binding to HRAS by surface plasmon resonance (SPR), Single Cycle Kinetics; conditions: for HRAS/KRAS (ratio of KD value for HRAS to KD value for KRAS): GDP-bound HRAS wild-type protein vs GDP-bound KRAS wild-type protein
GDP-bound HRAS wild-type protein, sequence (P01112 whole entry): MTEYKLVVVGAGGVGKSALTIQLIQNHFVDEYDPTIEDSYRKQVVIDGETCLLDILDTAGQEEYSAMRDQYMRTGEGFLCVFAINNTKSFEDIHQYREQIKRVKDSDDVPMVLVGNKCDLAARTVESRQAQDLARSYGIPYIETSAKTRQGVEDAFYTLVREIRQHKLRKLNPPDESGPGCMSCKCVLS

[4] = test system: human lung cancer strain NCI-H441;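 also: cell proliferation inhibition after four days measured by CellTiter-Glo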
[5] = SPR, Single Cycle Kinetics, 1:1 binding model

Structure (SMILES) | Kd [1, 5] [nM] | IC50 [4] [nM] | Kd ([1]; SPR, Single Cycle Kinetics) [nM] | NRAS/KRAS (ratio of KD value for NRAS to KD value for KRAS) ([2]; SPR, KD ratio class) | HRAS/KRAS (ratio of KD value for HRAS to KD value for KRAS) ([3]; SPR, KD ratio class) | NRAS/KRAS (ratio of KD value for NRAS to KD value for KRAS) ([2]; SPR) | HRAS/KRAS (ratio of KD value for HRAS to KD value for KRAS) ([3]; SPR) | further results
CCO[C@@H]1C[C@H]2C(=O)NC3(CCC3)C(=O)N(C)[C@@H](C3CCCC3)C(=O)N(C)[C@H](C(=O)N(C)C)CC(=O)N(C)[C@@H](CC3CC3)C(=O)N[C@@H]([C@@H](C)CC)C(=O)N(C)CC(=O)N(C)[C@H]3C/C=C\CCN(C3=O)[C@@H](Cc3ccc(F)cc3C)C(=O)N(C)CC(=O)N[C@@H](CCc3ccc(Cl)c(Cl)c3)C(=O)N2C1 [PP1476] | 1 | 216 |  | A (a compound having 10 or more and less than 20 is denoted as A) | B (a compound having 3 or more and less than 10 is denoted as B) |  |  | 
CCO[C@@H]1C[C@H]2C(=O)NC3(CCC3)C(=O)N(C)[C@@H](C3CCCC3)C(=O)N(C)[C@H](C(=O)N3CCOCC3)CC(=O)N(C)[C@@H](Cc3ccccc3C#N)C(=O)N[C@@H]([C@@H](C)CC)C(=O)N(C)CC(=O)N(C)[C@H]3CCCCCN(C3=O)[C@@H](Cc3ccc(C(F)(F)F)cc3)C(=O)N(C)CC(=O)N[C@@H](CCc3cc(F)c(C(F)(F)F)c(F)c3)C(=O)N2C1 [PP1165] |  | 295 | 1.5 |  |  | A (a compound having 10 or more and less than 20 is denoted as A) | B (a compound having 3 or more and less than 10 is denoted as B) | 
CCCOC[C@H]1C(=O)N[C@@H]([C@@H](C)CC)C(=O)N(C)CC(=O)N(C)[C@H]2C/C=C\CCN(C2=O)[C@@H](Cc2ccc(C)cc2)C(=O)N(C)CC(=O)N[C@@H](CCc2ccc(Cl)c(Cl)c2)C(=O)N2C[C@H](OCC)C[C@H]2C(=O)NC2(CC(C)(C)C2)C(=O)N(C)[C@@H](CC(C)(C)C)C(=O)N(C)[C@H](C(=O)N(C)C)CC(=O)N1C [PP2716] |  | 13.8 |  |  |  |  |  | Kd ([1]; SPR Single Cycle Kinetics, 1:1 binding model): 0.34 nM; NRAS/KRAS (ratio of KD value with respect to GDP-bound NRAS wild-type protein to KD value with respect to KRAS) ([2]; SPR KD ratio NRAS/KRAS, class symbols): A (a compound having 10 or more and less than 20 is denoted as A); HRAS/KRAS (ratio of KD value with respect to GDP-bound HRAS wild-type protein to KD value with respect to KRAS) ([3]; SPR KD ratio HRAS/KRAS, class symbols): A (a compound having 10 or more and less than 20 is denoted as A)
CCO[C@@H]1C[C@H]2C(=O)NC3(CCCC3)C(=O)N(C)[C@@H](C3CCCC3)C(=O)N(C)[C@H](C(=O)N(C)C)CC(=O)N(C)[C@@H](C)C(=O)N[C@@H]([C@@H](C)CC)C(=O)N(C)CC(=O)N(C)[C@H]3C/C=C\CCN(C3=O)[C@@H](CC3CCC(F)(F)CC3)C(=O)N(C)CC(=O)N[C@@H](CCc3cc(F)c(C(F)(F)F)c(F)c3)C(=O)N2C1 [PP1456, (2S,8S,12R,14S,20S,23S,27S,30S,36S,38Z)-20-cyclopentyl-2-[(4,4-difluorocyclohexyl)methyl]-8-[2-[3,5-difluoro-4-(trifluoromethyl)phenyl]ethyl]-12-ethoxy-N,N,4,19,22,26,27,32,35-nonamethyl-30-[(1S)-1-methylpropyl]-3,6,9,15,18,21,25,28,31,34,42-undecaoxo-spiro[1,4,7,10,16,19,22,26,29,32,35-undecazatricyclo[34.5.1.0^10,14]dotetracont-38-ene-17,1′-cyclopentane]-23-carboxamide] | 0.12 | 90 |  | A (a compound having 10 or more and less than 20 is denoted as A) | A (a compound having 10 or more and less than 20 is denoted as A) |  |  | 
CC[C@H](C)[C@@H]1NC(=O)[C@@H]2CCCCCc3ccc(cc3)C[C@@H](C(=O)N(C)CC(=O)N[C@@H](CCc3ccc(C(F)(F)F)c(OC)c3)C(=O)N3C[C@H](OC4CCC4)C[C@H]3C(=O)NC3(CC(C)(C)C3)C(=O)N(C)[C@@H](C3CCCC3)C(=O)N(C)[C@H](C(=O)N(C)C)CC(=O)N2C)N2CC/C=C\C[C@@H](C2=O)N(C)C(=O)CN(C)C1=O [PP3073] |  |  | 0.025 |  |  | A (a compound having 10 or more and less than 20 is denoted as A) | A (a compound having 10 or more and less than 20 is denoted as A) | ratio of the KD value with respect to GDP-bound NRAS wild-type protein to the KD value with respect to KRAS ([2]; SPR, KD(NRAS)/KD(KRAS)): A (a compound having 10 or more and less than 20 is denoted as A); ratio of the KD value with respect to GDP-bound HRAS wild-type protein to the KD value with respect to KRAS ([3]; SPR, KD(HRAS)/KD(KRAS)): A (a compound having 10 or more and less than 20 is denoted as A); IC50 ([4]; read-out: NCI-H441 cell proliferation inhibitory activity, 50% proliferation inhibitory concentration (IC50 value), NCI-H441, four days, CellTiter-Glo): 1.9 nM
CCO[C@@H]1C[C@H]2C(=O)NC3(CCC3)C(=O)N(C)[C@@H](C3CCCC3)C(=O)N(C)[C@H](C(=O)N(C)C)CC(=O)N(C)[C@@H](CC(C)C)C(=O)N[C@@H]([C@@H](C)CC)C(=O)N(C)CC(=O)N(C)[C@H]3C/C=C\CCN(C3=O)[C@@H](CC3CCC(F)(F)CC3)C(=O)N(C)CC(=O)N[C@@H](CCc3cc(F)c(C(F)(F)F)c(F)c3)C(=O)N2C1 [PP1453, (2S,8S,12R,14S,20S,23S,27S,30S,36S,38Z)-20-cyclopentyl-2-[(4,4-difluorocyclohexyl)methyl]-8-[2-[3,5-difluoro-4-(trifluoromethyl)phenyl]ethyl]-12-ethoxy-27-isobutyl-N,N,4,19,22,26,32,35-octamethyl-30-[(1S)-1-methylpropyl]-3,6,9,15,18,21,25,28,31,34,42-undecaoxo-spiro[1,4,7,10,16,19,22,26,29,32,35-undecazatricyclo[34.5.1.0^10,14]dotetracont-38-ene-17,1′-cyclobutane]-23-carboxamide] | 0.12 | 13.6 |  | A (a compound having 10 or more and less than 20 is denoted as A) | A (a compound having 10 or more and less than 20 is denoted as A) |  |  | 
CCO[C@@H]1C[C@H]2C(=O)NC3(CC(C)(C)C3)C(=O)N(C)[C@@H](C3CCCC3)C(=O)N(C)[C@H](C(=O)N(C)C)CC(=O)N(C)[C@@H](COC)C(=O)N[C@@H]([C@@H](C)CC)C(=O)N(C)CC(=O)N(C)[C@H]3C/C=C\CCN(C3=O)[C@@H](Cc3ccc(C)cc3)C(=O)N(C)CC(=O)N[C@@H](CCc3ccc(C(F)(F)F)c(Cl)c3)C(=O)N2C1 [PP2389] |  | 21.3 | 0.079 |  |  | A (a compound having 10 or more and less than 20 is denoted as A) | B (a compound having 3 or more and less than 10 is denoted as B) | 

Continued by falling IC50 [4], values first:

Kd [1, 5] [nM] | IC50 [4] [nM] | Kd ([1]; SPR, Single Cycle Kinetics) [nM] | Structure (SMILES) | NRAS/KRAS (ratio of KD value for NRAS to KD value for KRAS) ([2]; SPR, KD ratio class) | HRAS/KRAS (ratio of KD value for HRAS to KD value for KRAS) ([3]; SPR, KD ratio class) | NRAS/KRAS (ratio of KD value for NRAS to KD value for KRAS) ([2]; SPR) | HRAS/KRAS (ratio of KD value for HRAS to KD value for KRAS) ([3]; SPR) | further results
 | 134 | 0.5 | CCO[C@@H]1C[C@H]2C(=O)NC3(CCC3)C(=O)N(C)[C@@H](C3CCCC3)C(=O)N(C)[C@H](C(=O)N3CCOCC3)CC(=O)N(C)[C@@H](Cc3ccc(C#N)cc3)C(=O)N[C@@H]([C@@H](C)CC)C(=O)N(C)CC(=O)N(C)[C@H]3CCCCCN(C3=O)[C@@H](Cc3ccc(C(F)(F)F)cc3)C(=O)N(C)CC(=O)N[C@@H](CCc3cc(F)c(C(F)(F)F)c(F)c3)C(=O)N2C1 [PP1167] |  |  | B (a compound having 3 or more and less than 10 is denoted as B) | B (a compound having 3 or more and less than 10 is denoted as B) | 
0.51 | 90.3 |  | CCO[C@@H]1C[C@H]2C(=O)NC3(CCC3)C(=O)N(C)[C@@H](C3CCCC3)C(=O)N(C)[C@H](C(=O)N(C)C)CC(=O)N(C)[C@@H](CC(C)C)C(=O)N[C@@H]([C@@H](C)CC)C(=O)N(C)CC(=O)N(C)[C@H]3C/C=C\CCN(C3=O)[C@@H](Cc3ccc(F)cc3)C(=O)N(C)CC(=O)N[C@@H](CCc3cc(F)c(Cl)c(F)c3)C(=O)N2C1 [PP1483] | A (a compound having 10 or more and less than 20 is denoted as A) | B (a compound having 3 or more and less than 10 is denoted as B) |  |  | 
0.24 | 56.7 |  | CCO[C@@H]1C[C@H]2C(=O)NC3(CCC3)C(=O)N(C)[C@@H](C3CCCC3)C(=O)N(C)[C@H](C(=O)N(C)C)CC(=O)N(C)[C@@H](CC)C(=O)N[C@@H]([C@@H](C)CC)C(=O)N(C)CC(=O)N(C)[C@H]3C/C=C\CCN(C3=O)[C@@H](Cc3ccc(C(F)(F)F)cc3)C(=O)N(C)CC(=O)N[C@@H](CCc3cc(F)c(Cl)c(F)c3)C(=O)N2C1 [PP1262] | A (a compound having 10 or more and less than 20 is denoted as A) | B (a compound having 3 or more and less than 10 is denoted as B) |  |  | 
0.076 | 12.8 |  | CCCCCC[C@H]1C(=O)N[C@@H]([C@@H](C)CC)C(=O)N(C)CC(=O)N(C)[C@H]2C/C=C\CCN(C2=O)[C@@H](Cc2ccc(C(F)(F)F)cc2)C(=O)N(C)CC(=O)N[C@@H](CCc2cc(F)c(C(F)(F)F)c(F)c2)C(=O)N2C[C@H](OCC)C[C@H]2C(=O)NC2(CCC2)C(=O)N(C)[C@@H](C2CCCC2)C(=O)N(C)[C@H](C(=O)N(C)C)CC(=O)N1C [PP1242, (2S,8S,12R,14S,20S,23S,27S,30S,36S,38Z)-20-cyclopentyl-8-[2-[3,5-difluoro-4-(trifluoromethyl)phenyl]ethyl]-12-ethoxy-27-hexyl-N,N,4,19,22,26,32,35-octamethyl-30-[(1S)-1-methylpropyl]-3,6,9,15,18,21,25,28,31,34,42-undecaoxo-2-[[4-(trifluoromethyl)phenyl]methyl]spiro[1,4,7,10,16,19,22,26,29,32,35-undecazatricyclo[34.5.1.0^10,14]dotetracont-38-ene-17,1′-cyclobutane]-23-carboxamide] | A (a compound having 10 or more and less than 20 is denoted as A) | A (a compound having 10 or more and less than 20 is denoted as A) |  |  | 
